IC50 data for 30 compounds are collected here from US12570666B2, “Furoindazole derivatives” (Bayer Aktiengesellschaft, priority 2019, dated 2026).

The assay concerns the target T1, human GPR84 receptor (Homo sapiens, UniProt Q9NQS5).
T1 construct: frozen aliquots prepared by acCELLerate; host or cells: CHO-K1
Kind of assay: cAMP HTRF assay for identification of cellular GPR84 antagonists. The format is cell-based. The note with it: CHO-K1 cells stably expressing human GPR84; Forskolin + agonist 6-OAU (EC80); average or median values. A digest of the protocol:
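IC50 came from 4-parameter fits over 20 μM–0.07 nM (11 points, duplicate), normalized between DMSO (0%) and agonist-free (100% inhibition) wells. Readout: cAMP-d2/Eu-cryptate HTRF in hGPR84 CHO-K1 cells given forskolin plus agonist, compound preincubated 30 min at room temperature.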
Background: TR-FRET usually uses a lanthanide donor and a delayed reading to cut background.

pIC50: −log10 of the molar value.

T1 sequence (Q9NQS5 whole entry): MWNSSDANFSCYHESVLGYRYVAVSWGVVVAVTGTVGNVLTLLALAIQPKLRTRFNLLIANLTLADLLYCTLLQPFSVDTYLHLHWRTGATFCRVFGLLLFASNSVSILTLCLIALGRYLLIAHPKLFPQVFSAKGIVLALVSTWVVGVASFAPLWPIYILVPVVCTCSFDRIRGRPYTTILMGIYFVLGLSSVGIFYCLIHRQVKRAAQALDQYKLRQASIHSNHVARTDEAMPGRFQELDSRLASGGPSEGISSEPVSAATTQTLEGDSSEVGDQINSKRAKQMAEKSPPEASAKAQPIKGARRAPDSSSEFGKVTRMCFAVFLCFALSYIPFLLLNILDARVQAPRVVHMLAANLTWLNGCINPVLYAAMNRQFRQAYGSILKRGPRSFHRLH

Take `Cc1ccc(Cn2cc3c(n2)-c2c(oc(C(=O)NC[C@@H]4CCCO4)c2C(F)(F)F)CC3C)cn1` (mixture of isomers) [Example 253, (4±)-4-methyl-2-[(6-methylpyridin-3-yl)methyl]-N-{[(2S)-oxolan-2-yl]methyl}-8-(trifluoromethyl)-4,5-dihydro-2H-furo[2,3-g]indazole-7-carboxamide]: the pIC50 is 8.30.
Take `Cc1c(C(=O)NC[C@@H]2CCCO2)oc2c1-c1nn(C[C@H]3COCCO3)cc1C(C)C2` (mixture of isomers) [Example 249, (4±)-2-{[(2S)-1,4-dioxan-2-yl]methyl}-4,8-dimethyl-N-{[(2S)-oxolan-2-yllmethyl}-4,5-dihydro-2H-furo[2,3-g]indazole-7-carboxamide]: the negative-log IC50 (pIC50) is 6.91.
As for `CC1Cc2oc(C(=O)NC[C@@H]3COCCO3)c(C(F)(F)F)c2-c2nn(Cc3ccccn3)cc21` (mixture of isomers) [Example 250, (4±)-N-{[(2R)-1,4-dioxan-2-yl]methyl}-4-methyl-2-[(pyridin-2-yl)methyl]-8-(trifluoromethyl)-4,5-dihydro-2H-furo[2,3-g]indazole-7-carboxamide], the figure is 7.77.
As for `Cc1c(C(=O)NC[C@@H]2CCCO2)oc2c1-c1nn(CC3COC3)cc1CC2` [Example 91, 8-methyl-2-(oxetan-3-ylmethyl)-N-[(2S)-tetrahydrofuran-2-ylmethyl]-4,5-dihydro-2H-furo[2,3-g]indazole-7-carboxamide], the figure is 7.19; as for `Cc1nonc1CNC(=O)c1oc2c(c1C)-c1nn(Cc3ccccn3)cc1CC2` [Example 15, 8-methyl-N-[(4-methyl-1,2,5-oxadiazol-3-yl)methyl]-2-(pyridin-2-ylmethyl)-4,5-dihydro-2H-furo[2,3-g]indazole-7-carboxamide], 5.70.
As for `O=C(NC[C@@H]1COCCO1)c1oc2c(c1C(F)(F)F)-c1nn(CC3CC3)cc1CC2` [Example 282, 2-(cyclopropylmethyl)-N-{[(2R)-1,4-dioxan-2-yl]methyl}-8-(trifluoromethyl)-4,5-dihydro-2H-furo[2,3-g]indazole-7-carboxamide], the figure is 8.00.
Take `Cc1c(C(=O)NC[C@@H]2COCCO2)oc2c1-c1nn(Cc3ncccc3Cl)cc1CC2` [Example 61, 2-[(3-chloropyridin-2-yl)methyl]-N-[(2R)-1,4-dioxan-2-ylmethyl]-8-methyl-4,5-dihydro-2H-furo[2,3-g]indazole-7-carboxamide]: the pIC50 is 7.70.
As for `O=C(NC[C@@H]1COCCO1)c1oc2c(c1C(F)(F)F)-c1nn(Cc3ccccn3)cc1C1(CC1)C2` [Example 219, N-[(2R)-1,4-Dioxan-2-ylmethyl]-2′-(pyridin-2-ylmethyl)-8′-(trifluormethyl)-2′,5′-dihydrospiro[cyclopropan-1,4′-furo[2,3-g]indazol]-7′-carboxamide], the figure is 8.15; as for `CCc1ccc(Cn2cc3c(n2)-c2c(oc(C(=O)NC[C@@H]4COCCO4)c2C)CC3)cn1` [Example 187], 7.40; as for `Cc1cccnc1Cn1cc2c(n1)-c1c(oc(C(=O)NC[C@@H]3CCCO3)c1C)CC2` [Example 62, 8-methyl-2-[(3-methylpyridin-2-yl)methyl]-N-[(2S)-tetrahydrofuran-2-ylmethyl]-4,5-dihydro-2H-furo[2,3-g]indazole-7-carboxamide], 6.96.
As for `Cc1c(C(=O)NCC2CC(F)(F)CO2)oc2c1-c1nn(C[C@H]3COCCO3)cc1C1(CC1)C2` (mixture of isomers) [Example 197], the figure is 7.01; as for `Cc1c(C(=O)NC[C@@H]2COCCO2)oc2c1-c1nn(CCN3CCNCC3)cc1CC2` [Example 163, N-[(2R)-1,4-dioxan-2-ylmethyl]-8-methyl-2-[2-(piperazin-1-yl)ethyl]-4,5-dihydro-2H-furo[2,3-g]indazole-7-carboxamide], below 4.70; as for `Cc1ccc(Cn2cc3c(n2)-c2c(oc(C(=O)N[C@@H]4CCOC4)c2C)CC3)nc1` [Example 318, 8-methyl-2-[(5-methylpyridin-2-yl)methyl]-N-[(3R)-oxolan-3-yl]-4,5-dihydro-2H-furo[2,3-g]indazole-7-carboxamide], 5.08.
For the compound `CC1(C)Cc2oc(C(=O)NC[C@@H]3CCCO3)c(C(F)(F)F)c2-c2nn(C[C@H]3COCCO3)cc21` [Example 268, 2-{[(2S)-1,4-dioxan-2-yl]methyl}-4,4-dimethyl-N-{[(2S)-oxolan-2-yl]methyl}-8-(trifluoromethyl)-4,5-dihydro-2H-furo[2,3-g]indazole-7-carboxamide], the pIC50 was 7.42.
As for `Cc1cnc(CNC(=O)c2oc3c(c2C(F)(F)F)-c2nn(C[C@H]4COCCO4)cc2[C@H](C)C3)nc1` (single isomer, unassigned) [Example 303, (4R or 4S)-2-{[(2S)-1,4-dioxan-2-yl]methyl}-4-methyl-N-[(5-methylpyrimidin-2-yl)methyl]-8-(trifluoromethyl)-4,5-dihydro-2H-furo[2,3-g]indazole-7-carboxamide], the figure is 8.22; as for `O=C(NC[C@@H]1CCCO1)c1oc2c(c1C(F)(F)F)-c1nn(Cc3ccccn3)cc1C1(CC1)C2` [Example 218, N-{[(2S)-oxolan-2-yl]methyl}-2′-[(pyridin-2-yl)methyl]-8′-(trifluoromethyl)-2′,5′-dihydrospiro[cyclopropane-1,4′-furo[2,3-g]indazole]-7′-carboxamide], 8.05; as for `Cc1c(C(=O)NCc2ccon2)oc2c1-c1nn(CC3COc4ncccc4O3)cc1CC2` (racemic) [Example 55, 2-[(2R/S)-2,3-dihydro[1,4]dioxino[2,3-b]pyridin-2-ylmethyl]-8-methyl-N-(1,2-oxazol-3-ylmethyl)-4,5-dihydro-2H-furo[2,3-g]indazole-7-carboxamide], 7.31.
For `Cc1c(C(=O)NC[C@@H]2CCCO2)oc2c1-c1nn(CC3(F)CN(S(C)(=O)=O)C3)cc1CC2` [Example 166, 2-{[3-fluoro-1-(methylsulfonyl)azetidin-3-yl]methyl}-8-methyl-N-[(2S)-tetrahydrofuran-2-ylmethyl]-4,5-dihydro-2H-furo[2,3-g]indazole-7-carboxamide], the pIC50 was 6.96.
As for `Cc1c(C(=O)NC[C@@H]2COCCO2)oc2c1-c1nn(C(=O)N(C)C)cc1C1(CC1)C2` [Example 154], the figure is 6.57.
Turning to `COC(=O)N1CC(F)(Cn2cc3c(n2)-c2c(oc(C(=O)NC[C@@H]4CCCO4)c2C)CC3)C1` [Example 167, methyl 3-fluoro-3-[(8-methyl-7-{[(2S)-tetrahydrofuran-2-ylmethyl]carbamoyl}-4,5-dihydro-2H-furo[2,3-g]indazol-2-yl)methyl]azetidine-1-carboxylate], the pIC50 was 7.22.
Turning to `O=C(NCc1nccs1)c1oc2c(c1C(F)(F)F)-c1nn(C[C@H]3COCCO3)cc1CC2` [Example 226, 2-[(2S)-1,4-Dioxan-2-ylmethyl]-N-(1,3-thiazol-2-ylmethyl)-8-(trifluormethyl)-4,5-dihydro-2H-furo[2,3-g]indazol-7-carboxamide], the pIC50 is 7.80.
On to `Cc1c(C(=O)NCC2CN(C)CCO2)oc2c1-c1nn(Cc3ccccn3)cc1CC2` (racemic) [Example 38, 8-methyl-N-{[(2R/S)-4-methylmorpholin-2-yl]methyl}-2-(pyridin-2-ylmethyl)-4,5-dihydro-2H-furo[2,3-g]indazole-7-carboxamide], for which the pIC50 is 6.15.
For `Cc1c(C(=O)NCC(C)(C)O)oc2c1-c1nn(Cc3ccccn3)cc1CC2` [Example 10, N-(2-hydroxy-2-methylpropyl)-8-methyl-2-(pyridin-2-ylmethyl)-4,5-dihydro-2H-furo[2,3-g]indazole-7-carboxamide], the negative logarithm of the IC50 (pIC50) is below 4.70.
As for `Cc1c(C(=O)NC[C@@H]2COCCO2)oc2c1-c1nn(CC3CC3)cc1C1(CC1)C2` [Example 131, 2′-(cyclopropylmethyl)-N-[(2R)-1,4-dioxan-2-ylmethyl]-8′-methyl-2′,5′-dihydrospiro[cyclopropane-1,4′-furo[2,3-g]indazole]-7′-carboxamide], the figure is 7.46.
As for `Cc1ccc(Cn2cc3c(n2)-c2c(oc(C(=O)NC[C@@H]4CCCO4)c2C(F)(F)F)CC3C)nc1` (mixture of isomers) [Example 251, (4±)-4-methyl-2-[(5-methyl-2-pyridyl)methyl]-N-[[(2S)-tetrahydrofuran-2-yl]methyl]-8-(trifluoromethyl)-4,5-dihydrofuro[2,3-g]indazole-7-carboxamide], the figure is 8.05.
As for `Cc1c(C(=O)NC[C@@H]2CCCO2)oc2c1-c1nn(Cc3ccccn3)cc1C(C)C2` (mixture of isomers) [Example 247, (4+)-4,8-dimethyl-N-{[(2S)-oxolan-2-yl]methyl}-2-[(pyridin-2-yl)methyl]-4,5-dihydro-2H-furo[2,3-g]indazole-7-carboxamide], the figure is 7.18.
In the case of `C[C@@H]1Cc2oc(C(=O)NCc3ncccn3)c(C(F)(F)F)c2-c2nn(C[C@H]3COCCO3)cc21` (single isomer, unassigned) [Example 304], the pIC50 is 7.89.
As for `Cc1ccc(Cn2cc3c(n2)-c2c(oc(C(=O)NC[C@@H]4COCCO4)c2C(F)(F)F)CC32CC2)nc1` [Example 215, N-{[(2R)-1,4-dioxan-2-yl]methyl}-2′-[(5-methylpyridin-2-yl)methyl]-8′-(trifluoromethyl)-2′,5′-dihydrospiro[cyclopropane-1,4′-furo[2,3-g]indazole]-7′-carboxamide], the figure is 8.52.
As to `Cc1ccc(Cn2cc3c(n2)-c2c(oc(C(=O)NC[C@@H]4CCCO4)c2C)CC3)c(C)n1` [Example 77, 2-[(2,6-dimethylpyridin-3-yl)methyl]-8-methyl-N-[(2S)-tetrahydrofuran-2-ylmethyl]-4,5-dihydro-2H-furo[2,3-g]indazole-7-carboxamide], the pIC50 is 6.77.
Take `Cc1c(C(=O)NCC2COCC(C)(C)O2)oc2c1-c1nn(C[C@H]3COCCO3)cc1C1(CC1)C2` (mixture of isomers) [Example 196]: the pIC50 is 6.74.

Usually pIC50 stands for the negative decadic logarithm of the IC50, by convention in mol/L.
